Results on three compounds are retold here after ChEMBL document CHEMBL5715954, “Silencing c-Myc translation as a therapeutic strategy through targeting PI3Kδ and CK1ε in hematological malignancies” (Blood, 2017).

What all share (parameters): scale not given: the % may be the effect or the level left
In experiment [1] the target is Tyrosine-protein kinase Blk (Homo sapiens) (UniProt P51451). Description: Inhibition of human BLK assessed as enzyme activity at 1 uM using poly[Glu:Tyr] (4:1) as substrate preincubated for 20 mins followed by [gamma-33P]-ATP addition and measured after 120 mins by radiometric Hot-SpotSM Kinase assay relative to control.
The target in experiment [2] is T1, Tyrosine-protein kinase ITK/TSK (Homo sapiens) (UniProt Q08881).
T1 sequence (whole entry): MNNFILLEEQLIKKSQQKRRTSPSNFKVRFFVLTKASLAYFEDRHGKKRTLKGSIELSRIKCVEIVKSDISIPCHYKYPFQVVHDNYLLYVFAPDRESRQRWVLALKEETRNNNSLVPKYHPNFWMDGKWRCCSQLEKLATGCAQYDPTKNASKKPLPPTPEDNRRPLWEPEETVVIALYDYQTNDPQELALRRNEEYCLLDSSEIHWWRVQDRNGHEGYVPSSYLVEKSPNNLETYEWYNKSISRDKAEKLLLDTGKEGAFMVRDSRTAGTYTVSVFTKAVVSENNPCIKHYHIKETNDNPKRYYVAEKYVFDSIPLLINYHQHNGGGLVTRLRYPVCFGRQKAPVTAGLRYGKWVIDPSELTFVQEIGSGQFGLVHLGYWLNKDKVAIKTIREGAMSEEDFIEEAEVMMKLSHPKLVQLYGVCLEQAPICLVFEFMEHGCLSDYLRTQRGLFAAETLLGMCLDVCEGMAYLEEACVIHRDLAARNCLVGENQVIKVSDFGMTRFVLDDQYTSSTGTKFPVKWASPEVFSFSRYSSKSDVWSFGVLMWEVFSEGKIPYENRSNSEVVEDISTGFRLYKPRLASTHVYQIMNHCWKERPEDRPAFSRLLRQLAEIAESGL
Description: Inhibition of human ITK assessed as enzyme activity at 1 uM using myelin basic protein as substrate preincubated for 20 mins followed by [gamma-33P]-ATP addition and measured after 120 mins by radiometric Hot-SpotSM Kinase assay relative to control.

In experiment [3] the target is T2, Myosin light chain kinase (Homo sapiens) (UniProt Q32MK0).
T2 sequence (whole entry): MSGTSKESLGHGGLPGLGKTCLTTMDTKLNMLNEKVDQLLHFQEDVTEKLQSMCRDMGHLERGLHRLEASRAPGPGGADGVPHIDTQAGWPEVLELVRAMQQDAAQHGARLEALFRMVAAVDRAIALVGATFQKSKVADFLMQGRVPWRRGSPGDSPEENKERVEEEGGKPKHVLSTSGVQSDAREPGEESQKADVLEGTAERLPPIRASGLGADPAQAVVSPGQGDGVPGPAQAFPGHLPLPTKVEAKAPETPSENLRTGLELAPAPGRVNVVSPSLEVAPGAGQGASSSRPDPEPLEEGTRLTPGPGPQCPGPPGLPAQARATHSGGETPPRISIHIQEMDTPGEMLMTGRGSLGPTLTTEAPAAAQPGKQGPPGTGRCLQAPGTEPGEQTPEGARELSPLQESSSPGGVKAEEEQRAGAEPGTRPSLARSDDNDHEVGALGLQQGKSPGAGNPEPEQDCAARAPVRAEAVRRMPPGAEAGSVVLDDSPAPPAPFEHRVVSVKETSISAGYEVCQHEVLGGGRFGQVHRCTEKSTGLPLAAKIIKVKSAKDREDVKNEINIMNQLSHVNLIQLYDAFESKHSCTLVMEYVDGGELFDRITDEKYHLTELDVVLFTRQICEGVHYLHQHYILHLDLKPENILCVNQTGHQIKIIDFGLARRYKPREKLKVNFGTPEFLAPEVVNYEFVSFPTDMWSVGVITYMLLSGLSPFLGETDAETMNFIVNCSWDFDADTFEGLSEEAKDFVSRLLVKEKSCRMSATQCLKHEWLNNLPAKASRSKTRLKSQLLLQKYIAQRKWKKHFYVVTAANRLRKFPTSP
The experiment can be described thus: Inhibition of human MYLK3 assessed as enzyme activity at 1 uM using KKRPQRRYSNVF as substrate preincubated for 20 mins followed by [gamma-33P]-ATP addition and measured after 120 mins by radiometric Hot-SpotSM Kinase assay relative to control.

The target in experiment [4] is T3, MAP kinase-activated protein kinase 5 (Homo sapiens) (UniProt Q8IW41).
T3 sequence (whole entry): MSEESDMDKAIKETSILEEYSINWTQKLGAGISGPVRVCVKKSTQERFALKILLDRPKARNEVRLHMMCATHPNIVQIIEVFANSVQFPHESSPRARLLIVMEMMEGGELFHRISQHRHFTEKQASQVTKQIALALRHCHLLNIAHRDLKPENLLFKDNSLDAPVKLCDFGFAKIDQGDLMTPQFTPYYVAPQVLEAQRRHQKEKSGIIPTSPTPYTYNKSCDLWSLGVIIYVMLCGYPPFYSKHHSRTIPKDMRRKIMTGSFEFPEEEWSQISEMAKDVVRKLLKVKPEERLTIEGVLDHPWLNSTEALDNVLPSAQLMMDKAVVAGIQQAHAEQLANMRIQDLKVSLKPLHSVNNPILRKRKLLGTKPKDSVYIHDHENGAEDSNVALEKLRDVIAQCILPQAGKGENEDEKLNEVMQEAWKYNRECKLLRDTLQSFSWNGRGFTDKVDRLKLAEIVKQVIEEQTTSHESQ
The experiment can be described thus: Inhibition of human MAPKAPK5 assessed as enzyme activity at 1 uM using KKLNRTLSVA as substrate preincubated for 20 mins followed by [gamma-33P]-ATP addition and measured after 120 mins by radiometric Hot-SpotSM Kinase assay relative to control.

Sequence of Tyrosine-protein kinase Blk (Homo sapiens) (P51451 2-505 limits assumed): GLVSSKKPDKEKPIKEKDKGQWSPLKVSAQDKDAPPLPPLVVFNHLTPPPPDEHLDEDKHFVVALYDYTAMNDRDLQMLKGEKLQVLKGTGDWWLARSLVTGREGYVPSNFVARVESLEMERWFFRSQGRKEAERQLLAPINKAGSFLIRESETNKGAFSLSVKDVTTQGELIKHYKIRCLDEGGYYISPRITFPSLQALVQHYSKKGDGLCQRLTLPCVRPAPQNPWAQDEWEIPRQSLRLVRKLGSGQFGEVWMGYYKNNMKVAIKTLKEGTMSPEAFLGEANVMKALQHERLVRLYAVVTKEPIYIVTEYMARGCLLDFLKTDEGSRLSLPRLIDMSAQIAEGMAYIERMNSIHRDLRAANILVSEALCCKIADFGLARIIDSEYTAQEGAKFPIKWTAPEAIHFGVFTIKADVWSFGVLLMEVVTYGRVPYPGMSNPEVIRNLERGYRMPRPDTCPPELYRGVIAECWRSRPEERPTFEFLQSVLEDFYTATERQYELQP

With `C[C@H](Nc1ncnc2nc[nH]c12)c1cc2cccc(Cl)c2c(=O)n1-c1ccccc1`, the Activity in experiment [1] stood at 96.9%; in experiment [2], 94.5%; in experiment [3] it was 98.2%; in experiment [4] it was 99%.

With `CC[C@H](Nc1ncnc2[nH]cnc12)c1nc2cccc(F)c2c(=O)n1-c1ccccc1`, the Activity in experiment [1] is 97.6%; in experiment [2], 102%; in experiment [3], 91.8%; in experiment [4] it was 99.5%.

`CC(C)Oc1ccc(-c2nn([C@@H](C)c3oc4ccc(F)cc4c(=O)c3-c3cccc(F)c3)c3ncnc(N)c23)cc1F` [UMBRALISIB]: the Activity in experiment [1] turned out to be 99.7%; in experiment [2] it was 97.3%; in experiment [3], 105%; in experiment [4], 104%.
